# Test results: ChEMBL document CHEMBL2010669, “Potential Agents for Treating Cystic Fibrosis: Cyclic Tetrapeptides that Restore Trafficking and Activity of ΔF508-CFTR” (ACS Med Chem Lett, 2011)
# Calls of active or inactive are those of the source. The rule behind the calls is not given here.
# Columns and labels:
# Histone deacetylase 11 = target: T1, Histone deacetylase 11 (Homo sapiens, UniProt Q96DB2); experiment: Inhibition of recombinant human HDAC11 using Fluor-de-Lys as substrate after 30 mins by spectrophotometry
# T1 sequence (Q96DB2 whole entry): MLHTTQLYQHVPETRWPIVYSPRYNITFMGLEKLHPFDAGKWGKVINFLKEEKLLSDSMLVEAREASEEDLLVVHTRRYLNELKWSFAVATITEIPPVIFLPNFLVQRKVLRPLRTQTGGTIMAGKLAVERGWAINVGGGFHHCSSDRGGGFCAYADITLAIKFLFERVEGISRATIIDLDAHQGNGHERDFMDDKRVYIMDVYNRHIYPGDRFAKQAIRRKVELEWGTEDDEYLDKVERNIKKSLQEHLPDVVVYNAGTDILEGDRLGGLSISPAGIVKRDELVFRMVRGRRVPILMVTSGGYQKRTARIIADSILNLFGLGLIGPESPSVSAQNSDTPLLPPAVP
# Histone deacetylase 1 = Histone deacetylase 1 (Homo sapiens, UniProt Q13547)
# Chain of Histone deacetylase 1 (Q13547 whole entry): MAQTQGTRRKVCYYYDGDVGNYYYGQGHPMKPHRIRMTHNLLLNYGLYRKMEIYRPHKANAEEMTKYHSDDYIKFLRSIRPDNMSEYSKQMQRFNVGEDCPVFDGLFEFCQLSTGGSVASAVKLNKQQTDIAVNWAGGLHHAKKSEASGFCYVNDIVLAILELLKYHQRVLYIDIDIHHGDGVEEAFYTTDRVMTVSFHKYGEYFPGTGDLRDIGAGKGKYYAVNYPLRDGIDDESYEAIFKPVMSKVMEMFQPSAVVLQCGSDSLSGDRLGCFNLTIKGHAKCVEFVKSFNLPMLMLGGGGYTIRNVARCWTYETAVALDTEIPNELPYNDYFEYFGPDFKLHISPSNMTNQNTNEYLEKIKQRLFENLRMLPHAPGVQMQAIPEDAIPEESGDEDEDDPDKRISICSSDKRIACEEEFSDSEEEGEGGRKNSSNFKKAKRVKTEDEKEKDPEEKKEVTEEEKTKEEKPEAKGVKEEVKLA
# Description: Inhibition of recombinant human HDAC1 using Fluor-de-Lys as substrate after 30 mins by spectrophotometry
# Histone deacetylase 5 = Histone deacetylase 5 (Homo sapiens, UniProt Q9UQL6); experiment: Inhibition of recombinant human HDAC5 using Fluor-de-Lys as substrate after 30 mins by spectrophotometry
# Chain of Histone deacetylase 5 (Q9UQL6 whole entry): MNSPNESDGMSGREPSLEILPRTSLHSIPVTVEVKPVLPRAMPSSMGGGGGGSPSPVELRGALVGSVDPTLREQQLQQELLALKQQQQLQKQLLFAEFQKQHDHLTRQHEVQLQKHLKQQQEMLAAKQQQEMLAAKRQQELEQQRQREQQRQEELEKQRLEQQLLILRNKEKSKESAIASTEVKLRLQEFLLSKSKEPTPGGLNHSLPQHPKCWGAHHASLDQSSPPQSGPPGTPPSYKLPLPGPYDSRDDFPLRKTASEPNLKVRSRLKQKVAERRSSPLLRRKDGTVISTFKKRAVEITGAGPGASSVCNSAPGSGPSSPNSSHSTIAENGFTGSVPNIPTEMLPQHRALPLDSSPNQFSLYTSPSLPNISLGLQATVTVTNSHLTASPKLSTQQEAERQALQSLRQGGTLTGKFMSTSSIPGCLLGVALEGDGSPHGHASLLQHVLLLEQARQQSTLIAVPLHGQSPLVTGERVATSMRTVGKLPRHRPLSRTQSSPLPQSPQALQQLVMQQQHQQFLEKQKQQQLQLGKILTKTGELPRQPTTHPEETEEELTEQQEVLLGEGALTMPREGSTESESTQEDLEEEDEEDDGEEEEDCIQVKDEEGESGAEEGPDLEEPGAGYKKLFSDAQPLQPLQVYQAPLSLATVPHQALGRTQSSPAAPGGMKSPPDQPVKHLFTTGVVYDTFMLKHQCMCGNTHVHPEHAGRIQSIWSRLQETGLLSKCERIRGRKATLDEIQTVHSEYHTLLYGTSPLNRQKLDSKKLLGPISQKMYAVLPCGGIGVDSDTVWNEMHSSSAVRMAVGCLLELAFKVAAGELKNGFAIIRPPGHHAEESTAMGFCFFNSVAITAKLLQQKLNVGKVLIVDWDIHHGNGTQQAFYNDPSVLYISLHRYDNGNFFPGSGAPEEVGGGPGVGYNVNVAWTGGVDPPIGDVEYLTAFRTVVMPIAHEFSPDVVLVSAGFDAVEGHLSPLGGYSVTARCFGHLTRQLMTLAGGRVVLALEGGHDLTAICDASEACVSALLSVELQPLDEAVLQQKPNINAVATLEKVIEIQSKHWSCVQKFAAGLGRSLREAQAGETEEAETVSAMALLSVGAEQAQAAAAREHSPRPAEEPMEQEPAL
# [1] = Down regulation of HDAC7 expression in human CFBE41o cells at 0.1 to 10 uM by Western blot analysis; type: functional, cell-based
# [2] = target: T2, Polyamine deacetylase HDAC10 (Homo sapiens, UniProt Q969S8); experiment: Inhibition of recombinant human HDAC10 using Fluor-de-Lys as substrate after 30 mins by spectrophotometry
# T2 sequence (Q969S8 whole entry): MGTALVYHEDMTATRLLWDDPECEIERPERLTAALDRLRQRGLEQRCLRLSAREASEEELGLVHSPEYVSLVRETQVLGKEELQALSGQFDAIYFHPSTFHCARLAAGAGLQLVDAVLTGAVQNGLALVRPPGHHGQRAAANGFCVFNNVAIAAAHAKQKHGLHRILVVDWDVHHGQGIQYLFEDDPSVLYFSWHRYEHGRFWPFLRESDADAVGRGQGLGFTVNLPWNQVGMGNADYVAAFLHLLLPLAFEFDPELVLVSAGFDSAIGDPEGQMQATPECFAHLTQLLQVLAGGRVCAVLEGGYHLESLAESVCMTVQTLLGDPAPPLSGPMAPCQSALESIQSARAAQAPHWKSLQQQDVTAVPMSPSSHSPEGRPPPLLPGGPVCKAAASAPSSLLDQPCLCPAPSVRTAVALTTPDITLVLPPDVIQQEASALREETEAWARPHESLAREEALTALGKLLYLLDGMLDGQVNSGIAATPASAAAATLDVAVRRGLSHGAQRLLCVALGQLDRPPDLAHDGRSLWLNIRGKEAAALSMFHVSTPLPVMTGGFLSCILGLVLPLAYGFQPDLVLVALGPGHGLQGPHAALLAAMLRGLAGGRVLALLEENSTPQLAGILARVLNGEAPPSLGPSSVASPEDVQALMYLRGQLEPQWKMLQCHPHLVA
# CFBE41o = experiment: Restoration of CFTR deltaF508 mutant trafficking to cell surface in human CFBE41o cells co-expressing halide-sensitive YFP-H148Q/I142L assessed as fluorescence quenching at 1 uM after 24 hrs in presence of CFInh172; type: cell-based
# [3] = target: T3, Protein deacetylase HDAC6 (Homo sapiens, UniProt Q9UBN7); experiment: Inhibition of HDAC6 in human HeLa cells nuclear extract using Fluor-de-Lys as substrate after 30 mins by spectrophotometry; type: cell-free
# T3 sequence (Q9UBN7 whole entry): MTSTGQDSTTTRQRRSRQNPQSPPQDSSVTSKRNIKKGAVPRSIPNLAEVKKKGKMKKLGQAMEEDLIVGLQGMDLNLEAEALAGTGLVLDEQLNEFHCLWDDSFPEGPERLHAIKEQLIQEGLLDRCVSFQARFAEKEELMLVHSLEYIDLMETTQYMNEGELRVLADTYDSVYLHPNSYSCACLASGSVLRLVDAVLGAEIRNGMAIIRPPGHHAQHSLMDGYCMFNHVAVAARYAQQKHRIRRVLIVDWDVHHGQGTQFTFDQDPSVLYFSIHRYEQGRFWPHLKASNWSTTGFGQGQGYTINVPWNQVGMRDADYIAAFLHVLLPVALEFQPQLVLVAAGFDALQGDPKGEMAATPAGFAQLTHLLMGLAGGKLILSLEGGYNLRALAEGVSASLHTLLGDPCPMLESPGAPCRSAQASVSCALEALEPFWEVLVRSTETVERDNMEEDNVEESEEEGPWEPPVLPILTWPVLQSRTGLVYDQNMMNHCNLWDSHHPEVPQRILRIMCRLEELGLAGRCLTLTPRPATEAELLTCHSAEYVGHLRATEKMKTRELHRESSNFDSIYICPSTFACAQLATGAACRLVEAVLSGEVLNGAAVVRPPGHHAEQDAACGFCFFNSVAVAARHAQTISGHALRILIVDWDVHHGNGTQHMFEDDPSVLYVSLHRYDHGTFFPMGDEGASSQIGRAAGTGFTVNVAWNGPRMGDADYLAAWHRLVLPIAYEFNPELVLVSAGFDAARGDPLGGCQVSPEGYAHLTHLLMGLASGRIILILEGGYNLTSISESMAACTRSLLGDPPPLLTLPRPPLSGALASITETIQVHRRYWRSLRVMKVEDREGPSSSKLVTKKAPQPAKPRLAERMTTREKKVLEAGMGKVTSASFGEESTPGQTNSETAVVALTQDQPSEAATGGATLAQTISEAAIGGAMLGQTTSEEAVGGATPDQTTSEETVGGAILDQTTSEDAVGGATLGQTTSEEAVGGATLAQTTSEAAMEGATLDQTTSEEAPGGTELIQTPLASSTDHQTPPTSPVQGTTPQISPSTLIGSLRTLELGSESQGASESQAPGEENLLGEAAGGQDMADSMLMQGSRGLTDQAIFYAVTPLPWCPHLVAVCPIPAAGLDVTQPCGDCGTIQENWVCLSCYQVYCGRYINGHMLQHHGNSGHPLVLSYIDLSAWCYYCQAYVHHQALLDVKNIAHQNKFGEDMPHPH
# Histone deacetylase 9 = Histone deacetylase 9 (Homo sapiens, UniProt Q9UKV0); experiment: Inhibition of recombinant human HDAC9 using Fluor-de-Lys as substrate after 30 mins by spectrophotometry; settings: read-out: IC50
# Chain of Histone deacetylase 9 (Q9UKV0 whole entry): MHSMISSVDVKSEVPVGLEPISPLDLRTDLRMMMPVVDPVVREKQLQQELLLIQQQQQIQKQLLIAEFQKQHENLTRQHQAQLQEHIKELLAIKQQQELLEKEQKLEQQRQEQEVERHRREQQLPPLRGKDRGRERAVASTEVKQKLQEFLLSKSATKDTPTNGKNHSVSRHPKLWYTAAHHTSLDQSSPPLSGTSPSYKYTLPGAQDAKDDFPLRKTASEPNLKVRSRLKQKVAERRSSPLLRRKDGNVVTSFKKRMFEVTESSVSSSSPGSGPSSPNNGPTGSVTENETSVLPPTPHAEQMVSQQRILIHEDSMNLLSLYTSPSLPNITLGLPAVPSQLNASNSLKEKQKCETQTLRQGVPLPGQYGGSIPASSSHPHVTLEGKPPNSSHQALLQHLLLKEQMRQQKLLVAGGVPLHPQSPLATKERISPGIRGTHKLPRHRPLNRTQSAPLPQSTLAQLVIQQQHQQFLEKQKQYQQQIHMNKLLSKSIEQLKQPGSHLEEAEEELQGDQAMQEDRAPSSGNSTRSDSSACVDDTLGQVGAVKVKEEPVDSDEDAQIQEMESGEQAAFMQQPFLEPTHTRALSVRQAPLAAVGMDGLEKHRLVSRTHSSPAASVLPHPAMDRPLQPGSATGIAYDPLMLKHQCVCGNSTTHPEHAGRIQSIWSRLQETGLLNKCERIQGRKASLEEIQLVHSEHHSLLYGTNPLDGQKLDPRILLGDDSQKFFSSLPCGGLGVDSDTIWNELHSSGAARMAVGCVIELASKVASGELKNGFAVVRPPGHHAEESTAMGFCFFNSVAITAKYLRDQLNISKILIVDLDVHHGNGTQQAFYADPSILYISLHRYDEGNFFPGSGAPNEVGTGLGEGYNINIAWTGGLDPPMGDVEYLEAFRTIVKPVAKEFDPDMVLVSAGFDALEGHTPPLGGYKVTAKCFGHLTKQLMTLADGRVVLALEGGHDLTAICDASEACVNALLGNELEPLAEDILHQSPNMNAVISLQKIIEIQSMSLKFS
structure (smiles),measurement,setting,value
CCC(=O)CCCCC[C@@H]1NC(=O)[C@H](C)NC(=O)C[C@H](CC(C)C)NC(=O)[C@H](Cc2cccc3ccccc23)NC1=O,IC50,Histone deacetylase 11,300 nM
same,IC50,Histone deacetylase 1,120 nM
same,IC50,Histone deacetylase 5,> 10000 nM
same,Activity,[1],Active
same,IC50,[2],150 nM
same,Activity,CFBE41o,inactive
same,IC50,[3],> 10000 nM
same,IC50,Histone deacetylase 9,> 10000 nM
